Columns and labels:
[1] = system: Lewis rats inoculated with peptidoglycan-polysaccharide (PG-PS); experiment: Histopathological examination of stifle joints (synovial inflammation); assay type: in vivo; conditions: scale of 1 (no inflammation) to 3, necropsy Day 30
Method: (§1) The ability of a dispersion comprising microparticles of an analgesic agent according to the invention to mediate pain and inflammation was investigated in an animal model. Lewis rats were inoculated with peptidoglycan-polysaccharide (PG-PS) (5.4 mg/mL, Lee Laboratories) by intraarticular injection in the right knee two weeks prior to the start of the examination period, i.e., on Day −14. PG-PS induces inflammation highly representative of that produced by certain drugs and is also used in models of arthritis. On Day 0, animals were dosed via single intraarticular injection of 70 μL saline, daily oral celecoxib 10 mg/kg, or single intraarticular injection of 70 μL (8.5 mg) ropivacaine suspension. Two hours post-dosing, the inflammatory response was activated by a tail vein injection of 0.5 mL of 0.4 mg/mL PG-PS. […] The animals in the saline and ropivacaine groups were re-dosed on Day 23, after the initial inflammatory response subsided, and the inflammatory response was reactivated on Day 28 by tail vein injection. The oral celecoxib was dosed 10 mg/kg daily throughout the study except for Day 29, when the dose was increased to 50 mg/kg. The test groups are described in Table 4:
(§2) Drug quantitation was performed on blood and plasma samples to assess the pharmacokinetic profiles of the drugs and the levels to which the drugs were present systemically. Knee joint tissues were also assayed for drug concentration in order to determine if any residual drug was present in the joints at the conclusion of the study. In addition, histological analysis and cytokine analysis were performed on knee joint tissues collected during necropsy on Day 30. […] Quantitation of celecoxib was performed on plasma and whole blood samples collected from the rats in Groups 2 to 5 at timepoints of 1, 6, 12, and 24 hours, and at 7, 14, 21, and 29 days. […] Celecoxib levels in Group 2 (saline control) were primarily below the quantitation limit, as expected. Celecoxib was also detected in the knee tissues from Groups 3, 4, and 5, with the Group 3 levels being the highest, followed by Group 4, and finally Group 5. […] Ropivacaine was undetected in the rat knee tissues.

[2] = slow release depot dosage form; cited from earlier work
[3] = relative, bupivacaine and ropivacaine; cited from earlier work
[4] = Drug quantitation in blood, plasma and knee joint tissues; assay type: in vivo, Lewis rats; conditions: for drug in knee tissues: end of study
Method: as §1, §2

## Cc1ccc(-c2cc(C(F)(F)F)nn2-c2ccc(S(N)(=O)=O)cc2)cc1 [Oral Celecoxib]
[1]
  synovial inflammation score, Animal 1: 3
  synovial inflammation score, Animal 2: 3
  synovial inflammation score, Animal 3: 3
  synovial inflammation score, Animal 4: 2

## CCCCN1CCCCC1C(=O)Nc1c(C)cccc1C (centres unmarked) [bupivacaine]
[2]
  minimum tissue drug level found to alleviate pain: 30 µg/mL
[3]
  equipotent concentration: 1

## Cc1ccc(-c2cc(C(F)(F)F)nn2-c2ccc(S(N)(=O)=O)cc2)cc1 [celecoxib]
[4]; Group 3, 10% suspension intraarticular
  drug in knee tissues: highest
[4]; Group 3, intraarticular 70 μL 10% suspension
  interval up to which measurable levels were detected in the blood: ≤ 14 days
[4]; Group 4 (5% suspension) vs Group 3 (10% suspension)
  blood levels compared to Group 3: systematically lower
[4]; Group 4, 5% suspension intraarticular
  drug in knee tissues: detected
[4]; Group 4, intraarticular 70 μL 5% suspension
  interval up to which measurable levels were detected in the blood: ≤ 14 days
[4]; Group 4, intraarticular 70 μL 5% suspension, re-dosed Day 23
  blood level on Day 29: measurable levels
[4]; Group 5, oral 10 mg/kg/day
  drug in knee tissues: detected
[4]; after intraarticular injection, rat blood
  persistence of systemic levels in blood: approximately 2 weeks
